Test results from PMC6545112 (Journal of medicinal chemistry, 2018).
Entries after “also recorded” stand apart in the source; their conditions may differ. Like-named read-outs stand apart in the source and are kept apart here.

Assays:
RS4;11 cell line = assay: cell growth inhibition, WST-8 assay, RS4; assay type: cell-based, human; settings: for IC50: 4 days, WST-8 assay
[1] = test system: leukemia cell lines with mutated p53; assay: cell growth inhibition, leukemia cell lines with mutated p53; assay type: cell-based, human; settings: read-out: IC50 in leukemia cell lines with mutated p53
MV4;11 AML cell line = assay: cell growth inhibition, MV4; assay type: cell-based, human
[2] = biological target: MDM2 and p53 proteins in RS4;11 cells (Homo sapiens, UniProt Q00987); assay: western blotting analysis of MDM2 and p53 proteins in RS4; assay type: cell-based
Sequence of MDM2 and p53 proteins in RS4;11 cells (Q00987 whole entry): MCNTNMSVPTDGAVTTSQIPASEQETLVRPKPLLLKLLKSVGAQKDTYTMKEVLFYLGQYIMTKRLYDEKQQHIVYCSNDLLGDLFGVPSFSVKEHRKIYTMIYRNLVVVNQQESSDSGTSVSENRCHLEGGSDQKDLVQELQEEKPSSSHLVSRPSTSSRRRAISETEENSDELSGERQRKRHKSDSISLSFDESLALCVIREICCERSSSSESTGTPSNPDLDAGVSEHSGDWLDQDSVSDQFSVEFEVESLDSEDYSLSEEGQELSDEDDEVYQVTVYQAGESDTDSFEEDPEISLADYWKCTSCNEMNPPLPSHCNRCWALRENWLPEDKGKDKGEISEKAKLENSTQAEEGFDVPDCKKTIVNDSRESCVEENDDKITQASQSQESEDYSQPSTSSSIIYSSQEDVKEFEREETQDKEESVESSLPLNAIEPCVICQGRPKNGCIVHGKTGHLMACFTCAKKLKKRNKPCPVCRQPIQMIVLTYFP

[3] = test system: p53 target genes (MDM2, p21, PUMA) and TP53 in RS4;11 cells; assay: qRT-PCR analysis of mRNA levels of p53 target genes and TP53 in RS4; assay type: cell-based, human; settings: RS4;11, 6 h
RS4;11 xenograft tumors = assay: antitumor activity in the RS4; assay type: in vivo, mice
[4] = first efficacy experiment
[5] = test system: MDM2, p53, p21 and PARP cleavage in RS4;11 xenograft tumors; settings: single dose, mice; cited from earlier work
MOLM-13 = assay: cell growth inhibition assay, MOLM-13; assay type: cell-based, human; settings: read-out: IC50 (nM) in cell growth inhibition assay; MOLM-13, AML, p53 WT
MOLM-14 = assay: cell growth inhibition assay, MOLM-14; assay type: cell-based, human; settings: read-out: IC50 (nM) in cell growth inhibition assay; MOLM-14, AML, p53 WT
SIG-M5 = assay: cell growth inhibition assay, SIG-M5; assay type: cell-based, human; settings: read-out: IC50 (nM) in cell growth inhibition assay; SIG-M5, AML, p53 WT
ML-2 = assay: cell growth inhibition assay, ML-2; assay type: cell-based, human; settings: read-out: IC50 (nM) in cell growth inhibition assay; ML-2, AML, p53 WT
OCL-AML-5 = assay: cell growth inhibition assay, OCL-AML-5; assay type: cell-based, human; settings: read-out: IC50 (nM) in cell growth inhibition assay; OCL-AML-5, AML, p53 WT
Mono-Mac-6 = assay: cell growth inhibition assay, Mono-Mac-6; assay type: cell-based, human; settings: read-out: IC50 in cell growth inhibition assay; Mono-Mac-6, AML, p53 MUT
KG-1 = assay: cell growth inhibition assay, KG-1; assay type: cell-based, human; settings: read-out: IC50 in cell growth inhibition assay; KG-1, AML, p53 MUT
[6] = test system: human acute leukemia cell lines with wild-type p53; assay: cell growth inhibition, panel of acute leukemia cell lines with wild-type p53; assay type: cell-based
RS4;11 cells = assay: flow cytometric analysis of apoptosis, Annexin V/PI double staining; assay type: cell-based, human; settings: RS4;11, 24 h treatment
[7] = test system: MDM2, p53, p21 and PARP cleavage in RS4;11 xenograft tumors; assay: pharmacodynamic analysis in RS4; assay type: in vivo, mice; settings: single dose 25 mg/kg, IV
[8] = biological target: MDM2 and p53 proteins in MV4;11 cell line (Homo sapiens, UniProt Q00987); assay: western blotting analysis of MDM2 and p53 proteins in MV4; assay type: cell-based; settings: MV4;11, 2 h, compared to RS4;11
Sequence of MDM2 and p53 proteins in MV4;11 cell line (Q00987 whole entry): as above

[9] = read-out: IC50 (nM) in inhibition of cell growth in the RS4;11 cell line

For O=C(O)c1ccc(NC(=O)[C@@H]2NC3(CCCCC3)[C@@]3(C(=O)Nc4cc(Cl)ccc43)[C@H]2c2cccc(Cl)c2F)cc1 [MI-1061, reference compound], the “effect of pretreatment with lenalidomide on cell growth inhibitory activity” value (RS4;11 cell line; RS4;11, 4 days, WST-8) was “no significant effect”, the IC50 ([1]; Homo sapiens) was > 10000 nM and the “effect of pretreatment with lenalidomide on cell growth inhibitory activity” value (MV4;11 AML cell line) was “has no effect on the activity”. The “effect on MDM2 and p53 protein levels (western blotting)” value (“effect on MDM2 and p53 protein levels” below) ([2]; RS4;11 cells, 2 h treatment) was “inducing accumulation of both MDM2 and p53; also recorded: induces accumulation of both MDM2 and p53 proteins”, the “transcriptional upregulation of p53 target genes (MDM2, p21, PUMA)” value [3] was “effectively induces marked transcriptional upregulation of p53 target genes” and the antitumor activity (RS4;11 xenograft tumors; 100 mg/kg, oral, daily dosing (5 days a week)) was “effectively retards tumor growth over the control”. The “weight loss or other signs of toxicity” value [4] was “no significant weight loss or other signs of toxicity”.

In the case of CC(C)(C)C[C@@H]1N[C@@H](C(=O)N[C@H]2CC[C@H](O)CC2)[C@H](c2cccc(Cl)c2F)[C@]12C(=O)Nc1cc(Cl)ccc12 [MI-77301], the “duration of p53 protein upregulation in tumor tissue” value [5] is given as “only a few hours”.

With “(3’R,4’S,5’R)-6”-Chloro-4’-(3-Chloro-2-fluorophenyl)-N-(4-((5-(2-(2,6-dioxopiperidin-3-yl)-1,3-dioxoisoindolin-4-yl)pent-4-yn-1-yl)carbamoyl)phenyl)-2”-oxodispiro[cyclohexane-1,2’-pyrrolidine-3’,3”-indoline]-5’-carboxamide [Compound 14]” the “times more potent than MD-222 in inhibition of cell growth” value (RS4;11 cell line; RS4;11) was 2 times, the IC50 (RS4;11 cell line; [9]) was 1.5 ± 0.5 nM and the IC50 (MOLM-13) was 7.3 ± 3 nM. It also gave an IC50 (MOLM-14) of 10.5 ± 3 nM, an IC50 (SIG-M5) of 19.8 ± 11 nM and an IC50 (ML-2) of 4.4 ± 2 nM. For the same compound, the IC50 (OCL-AML-5) was 33.1 ± 18 nM, the IC50 (Mono-Mac-6) was > 10000 nM and the IC50 (KG-1) was > 10000 nM. The “times more potent than MI-1061 in cell growth inhibition” value [6] was > 10 times, the IC50 [1] was > 10000 nM and the “effect on TP53 mRNA” value [3] was “have no effect on TP53”. For the same compound, the “times more potent than MI-1061 in transcriptional upregulation of p53 target genes” value [3] was > 10 times, the “times more potent than MI-1061 in inducing apoptosis” value (RS4;11 cells) was > 10 times and the “PARP cleavage in tumor tissue” value [7] was “evident at the 24 h time point”. For the same compound, the “persistence of MDM2 protein depletion in tumor tissue” value ([7]; depleted at 3 h) was > 24 h, the “duration of p53 and p21 upregulation in tumor tissue” value ([7]; strong at 3 h) was > 24 h and the antitumor activity (RS4;11 xenograft tumors; 25 mg/kg, daily, 5 days a week for 2 weeks) was “complete tumor regression”. The antitumor activity (RS4;11 xenograft tumors; 50 mg/kg, every other day for three weeks) was “complete tumor regression” and the antitumor activity (RS4;11 xenograft tumors; 50 mg/kg, weekly dosing) was “complete tumor growth inhibition”.

For “(3’R,4’S,5’R)-6”-Chloro-4’-(3-Chloro-2-fluorophenyl)-N-(4-((5-(2-(2,6-dioxopiperidin-3-yl)-1-oxoisoindolin-4-yl)pentyl)carbamoyl)phenyl)-2”-oxodispiro[cyclohexane-1,2’-pyrrolidine-3’,3”-indoline]-5’-carboxamide [Compound 13]”, the “times more potent than 1 in inhibition of cell growth” value (RS4;11 cell line; RS4;11) was 4 times, the IC50 (RS4;11 cell line; [9]) was 2.8 ± 1.1 nM and the IC50 (MOLM-13) was 11.7 ± 4 nM. For the same compound, the IC50 (MOLM-14) was 22.5 ± 8 nM, the IC50 (SIG-M5) was 29.9 ± 16 nM and the IC50 (ML-2) was 11.5 ± 6 nM. For the same compound, the IC50 (OCL-AML-5) was 58.2 ± 29 nM, the IC50 (Mono-Mac-6) was > 10000 nM and the IC50 (KG-1) was > 10000 nM. For the same compound, the “concentration that reduces/depletes MDM2 protein” value ([2]; RS4;11 / leukemia cells, 2 h treatment) was ≤ 1 nM, the “effect on MDM2 and p53 protein levels” value [8] was “similarly potent and effective in inducing depletion of MDM2 protein and accumulation of p53 protein” and the “effect on TP53 mRNA” value [3] was “have no effect on TP53”. For the same compound, the “times more potent than MI-1061 in transcriptional upregulation of p53 target genes” value [3] was > 10 times.

With “(3’R,4’S,5’R)-6”-Chloro-4’-(3-Chloro-2-fluorophenyl)-N-(4-((5-(2-(2,6-dioxopiperidin-3-yl)-3-oxoisoindolin-5-yl)pent-4-yn-1-yl)carbamoyl)phenyl)-2”-oxodispiro[cyclohexane-1,2’-pyrrolidine-3’,3”-indoline]-5’-carboxamide [Compound 17]” the “times less potent than MD-224 in inhibition of cell growth” value (RS4;11 cell line; RS4;11) was 3 times, the IC50 (RS4;11 cell line; [9]) was 5 ± 3 nM and the “effect on MDM2 and p53 protein levels” value ([2]; RS4;11 cells, 2 h treatment) was “effectively induce degradation of MDM2 and accumulation of p53”.

With “(3’R,4’S,5’R)-6”-Chloro-4’-(3-Chloro-2-fluorophenyl)-N-(4-(((S)-14-((2S,4R)-4-hydroxy-2-(((S)-1-(4-(4-methylthiazol-5-yl)phenyl)ethyl)carbamoyl)pyrrolidine-1-carbonyl)-15,15-dimethyl-12-oxo-3,6,9-trioxa-13-azahexadecyl)carbamoyl)phenyl)-2”-oxodispiro[cyclohexane-1,2’-pyrrolidine-3’,3”-indoline]-5’-carboxamide [Compound 20]” the IC50 (RS4;11 cell line; [9]) was 340 ± 20 nM, the IC50 (RS4;11 cell line; read-out: IC50 in the cell growth assay in the RS4;11 cell line) was 300 nM and the “effect on MDM2 protein level (western blotting)” value ([2]; RS4;11 cells, 12 h treatment) was “fails to reduce the level of MDM2 protein”.

In the case of “(3’R,4’S,5’R)-6”-Chloro-4’-(3-chloro-2-fluorophenyl)-N-(4-((2-(2,6-dioxopiperidin-3-yl)-1-oxoisoindolin-4-yl)carbamoyl)phenyl)-2”-oxodispiro[cyclohexane-1,2’-pyrrolidine-3’,3”-indoline]-5’-carboxamide [Compound 3]”, the IC50 (RS4;11 cell line; [9]) is reported as 68.4 ± 36 nM and the “effect on MDM2 and p53 protein levels” value ([2]; RS4;11 cells, 2 h treatment) is reported as “fails to induce MDM2 degradation”.
